In brackets after ≈: the same amount, converted by molar mass. Several values for one entry are separate records, joined by “and”; a condition that tells them apart may be missing. Equal entries are not always repeated.
Legend:
Pimephales promelas = details: chronic/long-term
Lepomis macrochirus = details: acute; duration: 96 hours; mortality
Apis mellifera = details: acute; duration: 48 hours; dermal; mortality
Daphnia magna = details: chronic/long-term; duration: 21 days
Rattus norvegicus = details: acute; oral; gavage; M/F; clinical chemistry
Tagia sp. = details: acute; duration: 14 days; mortality
Aphidius rhopalosiphi = assay: LR50; higher = less toxic; details: acute; duration: 48 hours; mortality

**Q.** For `CNC(=O)ON=C(C)SC` [Methomyl], which NOEC (Anas platyrhynchos; reproductive) is on record?
**A.** Its NOEC is 150 mg/kg.

**Q.** What about the LC50 (Anas platyrhynchos; short-term, oral, feed, mortality) of the same compound?
**A.** The LC50 was 3950 mg/kg.

**Q.** What about the NOEC (Pimephales promelas) of the same compound?
**A.** Its NOEC is 0.073 mg/L.

**Q.** And the LD50 (acute, oral, unspecified, mortality)?
**A.** The LD50 was 30 mg/kg.

**Q.** And the NOAEL (reproductive, development)?
**A.** Its NOAEL is 75 mg/kg.

**Q.** And the LC50 (Lepomis macrochirus)?
**A.** Its LC50 is 0.63 µg/mL (≈ 3.88 µM).

**Q.** And the LD50 (Apis mellifera)?
**A.** Its LD50 is 0.16 µg/piece.

**Q.** And the NOEC (Daphnia magna)?
**A.** Its NOEC is 0.0016 mg/L.

**Q.** What about the LD50 (Colinus virginianus; acute, oral, mortality) of the same compound?
**A.** Its LD50 is 24.2 mg/kg and 30.4 mg/kg.

**Q.** What about the NOEC (Colinus virginianus; reproduction developmental) of the same compound?
**A.** The NOEC was 150 mg/kg-day.

**Q.** And the NOAEL (Rattus norvegicus)?
**A.** Its NOAEL is 0.25 mg/kg-day.

**Q.** What about the LC50 (Tagia sp.) of the same compound?
**A.** The LC50 was 19 mg/kg.

**Q.** And the LR50 (Aphidius rhopalosiphi)?
**A.** Its LR50 is 0.25 g/ha.

From EPA's ToxValDB 9.5 (doi:10.2903/j.efsa.2006.83r)
